Measured values from patent US10221174B2, “N-(phenylsulfonyl)benzamides and related compounds as BCL-2 inhibitors” (THE REGENTS OF THE UNIVERSITY OF MICHIGAN, priority 2016, dated 2019).
Read-outs that look alike come from different tables or passages of the source.

Assays:
Bcl-2 = Bcl-2 (Homo sapiens (Human), UniProt P10415)
Description: (§1) Fluorescence polarization values were measured using the Infinite M-1000 plate reader (Tecan U.S., Research Triangle Park, N.C.) in Microfluor 1 96-well, black, round-bottom plates (Thermo Scientific). […] Plates were mixed and incubated at room temperature for 1 hour with gentle shaking to assure equilibrium. […] Equilibrium dissociation constants (Kd) were then calculated by fitting the sigmoidal dose-dependent FP increases as a function of protein concentrations using Graphpad Prism 5.0 software (Graphpad Software, San Diego, Calif.).
(§2) Mixtures of 5 μl of the tested inhibitors in DMSO and 120 μl of pre-incubated protein/probe complexes in the assay buffer were added into assay plates and incubated at room temperature for 2 hours with gentle shaking. […] FP values were measured as described above. IC50 values were determined by nonlinear regression fitting of the competition curves.

RS4;11 cells = assay: RS4;11 cell viability, CCK-8 assay; format: cell-based; details: Homo sapiens, RS4-11, 96 h, CCK-8, 4 days, read-out: RS4, 11 IC50 (Bcl-2 dependent)
Description: RS4;11 cells were obtained from American Type Culture Collection (ATCC). They were used within three months of thawing fresh vials. Cells were maintained in the recommended culture medium with 10% FBS at 37° C. and an atmosphere of 5% CO2.
The effect of representative Compounds of the Disclosure on cell viability was determined using Cell Counting Kit-8 (CCK-8) assay (Dojindo, Rockville, Md.) according to the manufacturer's instructions. 200 μL of a RS4;11 cell suspension (10000 cells/well) in culture medium were seeded into 96-well plates and cultured overnight. Each tested compound was serially diluted in culture medium, and 20 μL of the compound dilution was added to the corresponding well of the cell plate. After the addition of the tested compound, the cells were incubated at 37° C. in an atmosphere of 5% CO2 for 4 days. At the end of 4 days, 10 μL of CCK-8 solution was added to each well of the plate and incubated for 1-4 hours. The plates were read at 450 nm on the microplate spectrophotometer (Epoch2, BioTek). The readings were normalized to the vehicle cells, and the IC50 was calculated by nonlinear regression analysis using GraphPad Prism 5 software.

Bcl-xL = Bcl-xL (Homo sapiens (Human), UniProt Q07817); assay: Fluorescence polarization competitive binding assay, Bcl-xL; details: FP competition, 10 nM Bcl-xL, 2 nM Flu-BAK probe; read-out: Inhibitory activity IC50 Bcl-xL
Description: as §1, §2

MV4;11 cell line = assay: MV4;11 inhibition; format: cell-based

Sequence of Bcl-xL (Q07817 whole entry): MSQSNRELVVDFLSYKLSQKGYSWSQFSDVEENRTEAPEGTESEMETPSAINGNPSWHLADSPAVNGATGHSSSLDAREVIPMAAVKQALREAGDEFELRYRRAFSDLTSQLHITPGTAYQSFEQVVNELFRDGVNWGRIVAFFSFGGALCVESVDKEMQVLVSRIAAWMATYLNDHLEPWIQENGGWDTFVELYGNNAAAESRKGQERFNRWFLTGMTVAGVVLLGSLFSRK
Sequence of Bcl-2 (P10415 whole entry): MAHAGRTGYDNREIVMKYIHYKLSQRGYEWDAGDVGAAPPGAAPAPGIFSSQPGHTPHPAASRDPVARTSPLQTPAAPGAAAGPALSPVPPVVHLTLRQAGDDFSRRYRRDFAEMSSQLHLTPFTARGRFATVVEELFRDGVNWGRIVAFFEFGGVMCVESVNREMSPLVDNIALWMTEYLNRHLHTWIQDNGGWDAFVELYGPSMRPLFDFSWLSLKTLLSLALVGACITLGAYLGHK

IC50 (RS4;11 cells) [nM] | IC50 (MV4;11 cell line; Homo sapiens, MV4-11) [nM] | IC50 (MV4;11 cell line) [nM] | SMILES | IC50 (Bcl-2) [nM] | IC50 (Bcl-xL) [nM]
52 | 18.1 |  | O=C(NS(=O)(=O)c1ccc(NCC2CCOCC2)c([N+](=O)[O-])c1)c1c(F)cc(N2CCN(CC3=C(c4ccc(Cl)cc4)CC4(CCC4)CC3)CC2)cc1Oc1cnc2[nH]ccc2c1 [compound 41, 2-((1H-pyrrolo[2,3-b]pyridin-5-yl)oxy)-4-(4-((6-(4-chlorophenyl)spiro[3.5]non-6-en-7-yl)methyl)piperazin-1-yl)-6-fluoro-N-((3-nitro-4-(((tetrahydro-2H-pyran-4-yl)methyl)amino)phenyl)sulfonyl)benzamide] |  | 
111 | 88.1 |  | O=C(NS(=O)(=O)c1ccc(NCC2CCOCC2)c([N+](=O)[O-])c1)c1ccc(N2CCN(CC3=C(c4ccc(Cl)cc4)CC4(CCC4)CC3)CC2)c(F)c1Oc1cnc2[nH]ccc2c1 [compound 42, 2-((1H-pyrrolo[2,3-b]pyridin-5-yl)oxy)-4-(4-((6-(4-chlorophenyl)spiro[3.5]non-6-en-7-yl)methyl)piperazin-1-yl)-3-fluoro-N-((3-nitro-4-(((tetrahydro-2H-pyran-4-yl)methyl)amino)phenyl)sulfonyl)benzamide] |  | 
12 | 48.2 |  | O=C(NS(=O)(=O)c1cc(F)c(NCC2CCOCC2)c([N+](=O)[O-])c1)c1ccc(N2CCN(CC3=C(c4ccc(Cl)cc4)CC4(CCC4)CC3)CC2)cc1Oc1cnc2[nH]ccc2c1 [compound 29, 2-((1H-pyrrolo[2,3-b]pyridin-5-yl)oxy)-4-(4-((6-(4-chlorophenyl)spiro[3.5]non-6-en-7-yl)methyl)piperazin-1-yl)-N-((3-fluoro-5-nitro-4-(((tetrahydro-2H-pyran-4-yl)methyl)amino)phenyl)sulfonyl)benzamide] |  | 
66 | 103 |  | O=C(NS(=O)(=O)C1=CC2C(=O)N(CC3CCOCC3)CC2C([N+](=O)[O-])=C1)c1ccc(N2CCN(CC3=C(c4ccc(Cl)cc4)CC4(CCC4)CC3)CC2)cc1Oc1cnc2[nH]ccc2c1 (stereo not shown) [compound 38, 2-((1H-pyrrolo[2,3-b]pyridin-5-yl)oxy)-4-(4-((6-(4-chlorophenyl)spiro[3.5]non-6-en-7-yl)methyl)piperazin-1-yl)-N-((7-nitro-3-oxo-2-((tetrahydro-2H-pyran-4-yl)methyl)-2,3,3a,7a-tetrahydro-1H-isoindol-5-yl)sulfonyl)benzamide] |  | 
1.4 | 2.46 |  | O=C(NS(=O)(=O)c1cc(F)c(NC[C@H]2COCCO2)c([N+](=O)[O-])c1)c1ccc(N2CCN(CC3=C(c4ccc(Cl)cc4)CC4(CCC4)CC3)CC2)cc1Oc1cnc2[nH]ccc2c1 [Cpd. No. 40, (S)-N-((4-(((1,4-dioxan-2-yl)methyl)amino)-3-fluoro-5-nitrophenyl)sulfonyl)-2-((1H-pyrrolo[2,3-b]pyridin-5-yl)oxy)-4-(4-((6-(4-chlorophenyl)spiro[3.5]non-6-en-7-yl)methyl)piperazin-1-yl)benzamide] |  | 

The next lines start with the molecule.

SMILES | IC50 (RS4;11 cells) [nM] | IC50 (MV4;11 cell line; Homo sapiens, MV4-11) [nM] | IC50 (MV4;11 cell line) [nM] | IC50 (Bcl-2) [nM] | IC50 (Bcl-xL) [nM]
O=C(NS(=O)(=O)c1cccc([N+](=O)[O-])c1)c1ccc(N2CCN(CC3=C(c4ccc(Cl)cc4)CC4(CCC4)CC3)CC2)cc1Oc1cnc2[nH]ccc2c1 [Cpd. No. 4, 2-((1H-pyrrolo[2,3-b]pyridin-5-yl)oxy)-4-(4-((6-(4-chlorophenyl)spiro[3.5]non-6-en-7-yl)methyl)piperazin-1-yl)-N-((3-nitrophenyl)sulfonyl)benzamide] | 427 |  |  | 3.1 | 8.6
O=C(NS(=O)(=O)c1ccc(NC[C@H]2COCCO2)c([N+](=O)[O-])c1)c1ccc(N2CCN(CC3=C(c4ccc(Cl)cc4)CC4(CCC4)CC3)CC2)nc1Oc1cnc2[nH]ccc2c1 [compound 28, (S)-N-((4-(((1,4-dioxan-2-yl)methyl)amino)-3-nitrophenyl)sulfonyl)-2-((1H-pyrrolo[2,3-b]pyridin-5-yl)oxy)-6-(4-((6-(4-chlorophenyl)spiro[3.5]non-6-en-7-yl)methyl)piperazin-1-yl)nicotinamide] | 968 | 1300 |  |  | 
O=C(NS(=O)(=O)c1cc([N+](=O)[O-])c2cn(C3CCOCC3)nc2c1)c1ccc(N2CCN(CC3=C(c4ccc(Cl)cc4)CC4(CCC4)CC3)CC2)cc1Oc1cnc2[nH]ccc2c1 [compound 65, 2-((1H-pyrrolo[2,3-b]pyridin-5-yl)oxy)-4-(4-((6-(4-chlorophenyl)spiro[3.5]non-6-en-7-yl)methyl)piperazin-1-yl)-N-((4-nitro-2-(tetrahydro-2H-pyran-4-yl)-2H-indazol-6-yl)sulfonyl)benzamide] | 11 |  |  | 1.4 | 9.9
O=C(NS(=O)(=O)c1ccc(NC[C@H]2COCCO2)c([N+](=O)[O-])c1)c1ncc(N2CCN(CC3=C(c4ccc(Cl)cc4)CC4(CCC4)CC3)CC2)cc1Oc1cnc2[nH]ccc2c1 [compound 27, (S)-N-((4-(((1,4-dioxan-2-yl)methyl)amino)-3-nitrophenyl)sulfonyl)-3-((1H-pyrrolo[2,3-b]pyridin-5-yl)oxy)-5-(4-((6-(4-chlorophenyl)spiro[3.5]non-6-en-7-yl)methyl)piperazin-1-yl)picolinamide] | 5.2 | 16.9 |  |  | 
COCCOCCNc1ccc(S(=O)(=O)NC(=O)c2cc(F)c(N3CCN(CC4=C(c5ccc(Cl)cc5)CC5(CCC5)CC4)CC3)cc2Oc2cnc3[nH]ccc3c2)cc1[N+](=O)[O-] [compound 37, 2-((1H-pyrrolo[2,3-b]pyridin-5-yl)oxy)-4-(4-((6-(4-chlorophenyl)spiro[3.5]non-6-en-7-yl)methyl)piperazin-1-yl)-5-fluoro-N-((4-((2-(2-methoxyethoxy)ethyl)amino)-3-nitrophenyl)sulfonyl)benzamide] | 68 | 154 |  |  | 
COCCOCCNc1ccc(S(=O)(=O)NC(=O)c2ccc(N3CCN(CC4=C(c5ccc(Cl)cc5)CC5(CCC5)CC4)CC3)c(F)c2Oc2cnc3[nH]ccc3c2)cc1[N+](=O)[O-] [compound 43, 2-((1H-pyrrolo[2,3-b]pyridin-5-yl)oxy)-4-(4-((6-(4-chlorophenyl)spiro[3.5]non-6-en-7-yl)methyl)piperazin-1-yl)-3-fluoro-N-((4-((2-(2-methoxyethoxy)ethyl)amino)-3-nitrophenyl)sulfonyl)benzamide] | 80 | 126 |  |  | 
O=C(NS(=O)(=O)c1cc([N+](=O)[O-])c2c(cnn2CC2CCOCC2)c1)c1ccc(N2CCN(CC3=C(c4ccc(Cl)cc4)CC4(CCC4)CC3)CC2)cc1Oc1cnc2[nH]ccc2c1 [compound 60, 2-((1H-pyrrolo[2,3-b]pyridin-5-yl)oxy)-4-(4-((6-(4-chlorophenyl)spiro[3.5]non-6-en-7-yl)methyl)piperazin-1-yl)-N-((7-nitro-1-((tetrahydro-2H-pyran-4-yl)methyl)-1H-indazol-5-yl)sulfonyl)benzamide] | 252 |  |  |  | 67.5
O=C(NS(=O)(=O)c1cc([N+](=O)[O-])c2nn(CC3CCOCC3)cc2c1)c1ccc(N2CCN(CC3=C(c4ccc(Cl)cc4)CC4(CCC4)CC3)CC2)cc1Oc1cnc2[nH]ccc2c1 [compound 61, 2-((1H-pyrrolo[2,3-b]pyridin-5-yl)oxy)-4-(4-((6-(4-chlorophenyl)spiro[3.5]non-6-en-7-yl)methyl)piperazin-1-yl)-N-((7-nitro-2-((tetrahydro-2H-pyran-4-yl)methyl)-2H-indazol-5yl)sulfonyl)benzamide] | 43 |  |  |  | 13.1
O=C(NS(=O)(=O)c1ccc(NCC2CCOCC2)c([N+](=O)[O-])c1)c1ccc(C2=CCN(CC3=C(c4ccc(Cl)cc4)CC4(CCC4)CC3)CC2)cc1Oc1cnc2[nH]ccc2c1 [compound 7, 2-((1H-pyrrolo[2,3-b]pyridin-5-yl)oxy)-4-(1-((6-(4-chlorophenyl)spiro[3.5]non-6-en-7-yl)methyl)-1,2,3,6-tetrahydropyridin-4-yl)-N-((3-nitro-4-(((tetrahydro-2H-pyran-4-yl)methyl)amino)phenyl)sulfonyl)benzamide] | 35 |  |  |  | 15.7
O=C(NS(=O)(=O)c1ccc(NC[C@H]2COCCO2)c([N+](=O)[O-])c1)c1cc(F)c(N2CCN(CC3=C(c4ccc(Cl)cc4)CC4(CCC4)CC3)CC2)cc1Oc1cnc2[nH]ccc2c1 [compound 39, (S)-N-((4-(((1,4-dioxan-2-yl)methyl)amino)-3-nitrophenyl)sulfonyl)-2-((1H-pyrrolo[2,3-b]pyridin-5-yl)oxy)-4-(4-((6-(4-chlorophenyl)spiro[3.5]non-6-en-7-yl)methyl)piperazin-1-yl)-5-fluorobenzamide] | 31 |  | 33.7 |  | 
COCCOCCn1nc2cc(S(=O)(=O)NC(=O)c3ccc(N4CCN(CC5=C(c6ccc(Cl)cc6)CC6(CCC6)CC5)CC4)cc3Oc3cnc4[nH]ccc4c3)cc([N+](=O)[O-])c2c1F [compound 22, 2-((1H-pyrrolo[2,3-b]pyridin-5-yl)oxy)-4-(4-((6-(4-chlorophenyl)spiro[3.5]non-6-en-7-yl)methyl)piperazin-1-yl)-N-((3-fluoro-2-(2-(2-methoxyethoxy)ethyl)-4-nitro-2H-indazol-6-yl)sulfonyl)benzamide] | 20 | 58.9 |  |  | 
